Target: Src Kinase (p60^C-Src) (Homo sapiens, UniProt P12931)
Assay: Src kinase DELFIA time-resolved fluorometric assay
Assay type: biochemical
Conditions: Src kinase inhibitory activity; 100 μM ATP, poly(Glu, Tyr) 4:1 substrate, 15 min at room temp.; read-out: Activity (μMol, Delfia assay. IC50)
Method: The compounds 1-25 above were assayed for activity with respect to the Src protein tyrosine kinase by the fluorometric method described in Measurement of the Protein Tyrosine Kinase Activity of c-Src Using Time-Resolved Fluorometry of Europium Chelates, Braunwalder, A.F. et al., Analytical Biochemistry 238, 159-164 (1996), the disclosure of which is incorporated herein by reference, using the materials and procedures further specified below.
General Assay Method for Src-Kinase:
• Costar 384 Clear, non-treated, high-binding plates • Sigma poly(Glu, Tyr) 4:1, ave. MW 35,000 • Src Kinase (p60^C-Src) • Sigma ATP (1.5 mM Stock Soln. in H2O) • MES Buffer: 30 mM MES (pH 6.8) • 10 mM MgCl2 • MBI Buffer: (MES+0.4 mg/ml BSA+0.003% IGEPAL) • Wallac Eu-labelled anti-phosphotyrosine Antibody (CR04-100) • Coating Solution: • 22.5 mM Na2CO3 (pH 9.6) • 27.5 mM NaHCO3 • 0.9% NaCl • Antibody Dilution Buffer: (MES+3% BSA) • DELFIA® Wash Solution (TTBS): • 0.5 M NaCl • 20 mM Tris (pH7.4) • 0.15% Tween 20 • DELFIA Enhancement Solution Method:
The plates were coated with 0.1 mg/ml poly(Glu, Tyr) in Coating Solution, 35 μl/well. […]
The reaction was stopped by aspiration, and then washed 3 times with MES (100 μl/wash). […] 20 μl DELFIA enhancement solution was added and the plates were read on a Wallac Victor plate reader in time-resolved fluorescence mode using 340 nm excitation and 615 nm emission wavelengths.

IC50: 22 µM
Substance: [4-(Piperidin-4-yl)carbonyl-1-[[2-(4-phenylbutanoyl) amino]-4-[(1-aminocarbonyl-2-(naphth-2-yl))ethylamino]-carbonylaminophenyl]homopiperazine [Example 21]

— patent US7323457B2, “Substituted sulfonamides and ureas useful for inhibiting kinase activity” (Aventis Pharmaceuticals Inc., priority 2001, dated 2008)
